Measured values published in PMC7719768, “Glycogen Phosphorylase: A Drug Target of Amino Alcohols in Echinococcus granulosus, Predicted by a Computer-Aided Method” (Frontiers in Microbiology, 2020).

Legend:
[1] = biological target: T1, E. granulosus PSC Gp (EgGps: EgGp1 and EgGp2); assay: glycogen degradation coupled to phosphoglucomutase and glucose-6-phosphate dehydrogenase, NADPH at […] nm; format: biochemical, Echinococcus granulosus; conditions: protoscolex homogenate; 2 mg/ml glycogen, 1 mM AMP, 5 mM MgCl2, Tris-HCl, 25 °C; 2 min pre-incubation; read-out: IC50/LC50 (μM) / Gp / E. granulosus PSC
T1 construct: native enzyme in protoscolex homogenate, not purified; band at 96 kD; MN562583 = EgGp1, MN562584 = EgGp2; EgrG_000501500.1 is printed for Gp without saying which gene

[2] = biological target: T2, Rabbit muscle Gp (recombinant rabbit Gp) (Oryctolagus cuniculus, UniProt P00489); assay: as above; format: biochemical; conditions: read-out: IC50/LC50 (μM) / Gp / Rabbit muscle
T2 construct: gene PYGM; called recombinant rabbit Gp in the methods
T2 sequence (P00489 2-843): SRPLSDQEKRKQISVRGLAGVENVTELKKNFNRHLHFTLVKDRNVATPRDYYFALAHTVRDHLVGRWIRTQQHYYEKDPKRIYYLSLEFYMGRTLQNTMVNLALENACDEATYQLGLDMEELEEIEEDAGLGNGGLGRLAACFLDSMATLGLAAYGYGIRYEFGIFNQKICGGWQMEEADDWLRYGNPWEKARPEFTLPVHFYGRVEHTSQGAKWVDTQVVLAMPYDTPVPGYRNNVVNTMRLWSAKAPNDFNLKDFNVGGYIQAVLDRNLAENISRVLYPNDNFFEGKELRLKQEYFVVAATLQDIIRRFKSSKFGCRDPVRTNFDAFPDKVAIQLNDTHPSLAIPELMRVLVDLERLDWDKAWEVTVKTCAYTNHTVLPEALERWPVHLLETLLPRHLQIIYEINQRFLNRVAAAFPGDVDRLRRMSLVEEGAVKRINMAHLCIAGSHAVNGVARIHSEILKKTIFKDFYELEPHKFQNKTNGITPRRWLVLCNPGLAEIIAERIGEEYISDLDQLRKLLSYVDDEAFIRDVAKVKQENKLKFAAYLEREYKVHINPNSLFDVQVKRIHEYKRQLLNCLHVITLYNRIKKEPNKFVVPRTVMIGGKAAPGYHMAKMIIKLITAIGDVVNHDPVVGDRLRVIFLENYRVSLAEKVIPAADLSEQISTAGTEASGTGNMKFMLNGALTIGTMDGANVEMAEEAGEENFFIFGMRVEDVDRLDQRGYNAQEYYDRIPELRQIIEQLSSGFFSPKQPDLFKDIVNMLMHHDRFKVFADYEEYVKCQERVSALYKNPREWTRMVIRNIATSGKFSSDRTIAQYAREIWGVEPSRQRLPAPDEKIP

SMILES	IC50 [1] [µM]	IC50 [2] [µM]
OC(c1cc(C(F)(F)F)nc2c(C(F)(F)F)cccc12)C1CCCCN1 (stereo not shown) [MEF, mefloquine]	128	> 438
C[C@H]1[C@H](C)CC[C@]2(C(=O)O)CC[C@]3(C)C(=CC[C@@H]4[C@@]5(C)CC[C@H](O)C(C)(C)[C@@H]5CC[C@]43C)[C@H]12 [UA, ursolic acid]	> 438	5.47
